# Values joined by “and” are separate entries in the source; they are usually repeats but may differ in a detail not shown here. Identical values can stand only once.
# Test system: NCI-H196 complex spheroid viability
# Test: Anticancer human tumor NCI-H196 cell line growth inhibition [LSD1];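 further: spheroids exposed to agents for 7 days before readout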;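 on viability, T/C: 100% = DMSO vehicle control viability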
# Conditions: for viability, T/C: stronger effect = lower value
# Source text: Multicellular complex tumor spheroid response to LSD1 Inhibitor Iadademstat in combination with a variety of drugs and investigational agents in selected tumor cell lines
# The current study was undertaken to assess response to LSD1 inhibitors in combination with standard-of-care drugs and investigational agents in solid tumor complex spheroid models as well as in the K-562 leukemia. Complex spheroids include a stromal component modeled by human endothelial cells (HUVEC) and fibroblasts modeled by human mesenchymal stem cells (MSCs). The concentration ranges selected for each drug and investigational agent were based upon clinically achievable concentrations if the clinical Cmax of the agent was known.
# Compounds. The drugs and investigational agents used in this study are listed on Table 1. All of the agents used, including staurosporine (NSC755774) and gemcitabine (NSC613327), were obtained from the Developmental Therapeutics Program, NCI. FDA-approved anticancer drugs are available from the NCI at http://dtp.nci.nih.gov/branches/dscb/oncology_drugset_explanation.html. Drugs and investigational agents were >95% pure by proton nuclear magnetic resonance (NMR) and liquid chromatography/mass spectrometry (LC/MS). Stock solutions were prepared at 400x in DMSO, stored at -70 degrees C, and diluted in fresh medium prior to their use. The final concentration of DMSO in cell culture wells never exceeded 0.25% (v/v). The FDA-approved anticancer drug set is available from the Developmental Therapeutics Program at https://dtp.cancer.gov/organization/dscb/obtaining/available_plates.htm. All drugs and investigational agents were tested over a range starting from a high concentration at or near the clinical Cmax and decreasing in half-log increments. If the clinical Cmax for an agent had not been determined, the highest concentration tested was 10 microM.
# Cell Lines. The patient-derived cancer cell (PDC) lines: 292921-168-R-J2-PDC, K24384-001-R-PDC, and 521955-158-R2-J5-PDC pancreatic carcinomas, 556581-035-R-J1 ovarian carcinoma, 324938-238-R-J1-PDC, 855422-203-R-J1-PDC and 883617-216-R-J1-PDC urothelial bladder carcinomas, 743489-274-T-PDC renal cell carcinoma, 138582-R-J1 Merkel cell tumor, K60290-347-R-J1 and K57222-313-R-J1-PDC glioblastomas, 653999-131-R-J2-PDC, LG0703-F948-PDC, and 349418-098-R-PDC non-small cell lung carcinomas, 885512-296-R-J2-PDC, 171881-019-R-J1-PDC breast carcinomas and 186277-243-T-J2-PDC and 233499-124-R-J2-PDC colon carcinomas were obtained from the NCI Patient-Derived Models Repository (PDMR, https://pdmr.cancer.gov). The established cell lines NCI/ADR-RES (RRID:CVCL_14520 and OVCAR-5 (RRID:CVCL_1628) ovarian carcinomas, 786-O (RRID:CVCL_1051) and A498 (RRID:CVCL_A498) renal cell carcinoma, NCI-H211 (ATCC, cat. CRL-5824; RRID:CVCL_1529), NCI-H196 (ATCC, cat. CRL-5823, RRID:CVCL_1509), SW 1271 (ATCC, cat. CRL-2177, RRID:CVCL_1716) and NCI-H1876 (ATCC, cat. CRL-5902, RRID:CVCL_1503) small cell lung carcinomas, MDA-MB-231 (RRID:CVCL_0062) and MDA-MB-468 (RRID:CVCL_0419)breast carcinomas (10-12). Pooled donor human umbilical vein endothelial cells (HUVEC, Lonza, cat. CC-2519) and human mesenchymal stem cells (hMSC, Lonza, cat. PT-2501) were purchased from Lonza (Walkersville, MD).
# Cell Culture. All cells were maintained in an incubator at 37 degrees C and 5% CO2 with 95% humidity. The PDC lines were cultured according to standard operating procedures established by the NCI PDMR (https://pdmr.cancer.gov). Briefly all PDCs were thawed and cultured in Matrigel-coated flasks prepared with a working solution of 1X Ham's F-12 nutrient mix, without supplementation (Invitrogen, Waltham, MA, cat. 11765054), 100 U/mL penicillin-streptomycin (Invitrogen, cat. 15140122), and 2.5% Matrigel (Corning Inc., Corning, NY, cat. 354248) for the first three passages. […]
Compound,"viability, T/C (compound 0.00316 µM)","viability, T/C (compound 0.01 µM)","viability, T/C (compound 0.0316 µM)","viability, T/C (compound 0.1 µM)",IC50 (curve of compound),"viability, T/C (compound 0.316 µM)","viability, T/C (compound 1 µM)","viability, T/C (compound 0.00949 µM)","viability, T/C (compound 0.03 µM)","viability, T/C (compound 0.0949 µM)","viability, T/C (compound 0.3 µM)",further results
CC(C)CC(NC(=O)C(Cc1ccccc1)NC(=O)c1cnccn1)B(O)O (stereo not given),4.42% and 2.33%,2.79% and 2.47%,2.25% and 1.91%,0.92% and 0.81%,0.531 nM and 0.44 nM,–,–,–,–,–,–,"viability, T/C (compound 0.000316 µM): 86.3% and 68.7%; viability, T/C (compound 0.001 µM): 5.76% and 3.52%"
CC(C)CC(NC(=O)CNC(=O)c1cc(Cl)ccc1Cl)B1OC(=O)CC(CC(=O)O)(C(=O)O)O1 (stereo not given),103% and 92%,83.3% and 57.1%,34.6% and 20.3%,6.61% and 4.84%,22 nM and 12.6 nM,–,–,–,–,–,–,"viability, T/C (compound 0.000316 µM): 108% and 104%; viability, T/C (compound 0.001 µM): 113% and 107%"
CC(C)c1c(-c2ccccc2)nc2c(C#N)c[nH]n2c1=O,–,–,107% and 96.4%,108% and 100%,> 10000 nM,98.3% and 93.8%,101% and 91%,–,–,–,–,"viability, T/C (compound 3.16 µM): 99.7% and 94.1%; viability, T/C (compound 10 µM): 88.7% and 84.2%"
CC1(C)CCC(CN2CCN(c3ccc(C(=O)NS(=O)(=O)c4ccc(NCC5CCOCC5)c([N+](=O)[O-])c4)c(Oc4cnc5[nH]ccc5c4)c3)CC2)=C(c2ccc(Cl)cc2)C1,–,–,99.4% and 101%,104% and 99.2%,5620 nM and 6290 nM,94.9% and 98.7%,103% and 93.7%,–,–,–,–,"viability, T/C (compound 3.16 µM): 86.4% and 94.3%; viability, T/C (compound 10 µM): 13% and 20.1%"
CC1COCCN1c1cc(-c2ccnn2C)c2ccnc(-c3ccn[nH]3)c2n1 (stereo not given),77.7% and 75.2%,77.9% and 70%,64.6% and 70%,65.4% and 57.1%,724 nM and 543 nM,55.8% and 53.1%,47.5% and 46.9%,–,–,–,–,–
CC1COCCN1c1cc(C2(S(C)(=N)=O)CC2)nc(-c2ccnc3[nH]ccc23)n1 (stereo not given),–,–,96.2% and 97.2%,100% and 94.8%,> 10000 nM,91.8% and 98.8%,84.6% and 84.2%,–,–,–,–,"viability, T/C (compound 3.16 µM): 77.8% and 76.2%; viability, T/C (compound 10 µM): 72.7% and 74.6%"
CCN(c1cc(-c2ccc(CN3CCOCC3)cc2)cc(C(=O)NCc2c(C)cc(C)[nH]c2=O)c1C)C1CCOCC1,–,–,–,–,> 3000 nM,–,–,95.5% and 97.5%,103% and 95.3%,92.9% and 110%,93.9% and 107%,"viability, T/C (compound 0.949 µM): 101% and 113%; viability, T/C (compound 3 µM): 108% and 100%"
CC[C@@]1(O)C(=O)OCc2c1cc1n(c2=O)Cc2cc3c(CN(C)C)c(O)ccc3nc2-1,95.1% and 99.2%,109% and 97.3%,110% and 115%,106% and 102%,> 100 nM,–,–,–,–,–,–,"viability, T/C (compound 0.000316 µM): 98.3% and 97.6%; viability, T/C (compound 0.001 µM): 99% and 93.1%"
CCc1c2c(nc3ccc(O)cc13)-c1cc3c(c(=O)n1C2)COC(=O)[C@]3(O)CC,–,–,–,–,10.1 nM and 8.88 nM,–,–,52.9% and 47.5%,2.96% and 3.28%,1.29% and 0.86%,1.52% and 0.88%,"viability, T/C (compound 0.000949 µM): 99.5% and 104%; viability, T/C (compound 0.003 µM): 103% and 96.6%"
COc1cc(C2c3cc4c(cc3C(OC3OC5COC(C)OC5C(O)C3O)C3COC(=O)C23)OCO4)cc(OC)c1O (stereo not given),–,–,–,–,> 3000 nM,–,–,98.3% and 98.5%,99.7% and 101%,98.6% and 112%,108% and 112%,"viability, T/C (compound 0.949 µM): 90.5% and 81.5%; viability, T/C (compound 3 µM): 65.7% and 59.9%"
COc1cc(Nc2ncc3c(n2)-c2ccc(Cl)cc2C(c2c(F)cccc2OC)=NC3)ccc1C(=O)O,96.3% and 91.4%,103% and 105%,114% and 99.4%,119% and 109%,> 1000 nM,132% and 120%,118% and 121%,–,–,–,–,–
COc1ccc([C@@H](O)c2cc(-c3ncnc4cc(N5CCOCC5)ccc34)c(F)cc2Cl)nn1,–,–,97.9% and 93.4%,100% and 90.9%,> 10000 nM,90.4% and 84.7%,86.4% and 85.7%,–,–,–,–,"viability, T/C (compound 3.16 µM): 83.8% and 73.6%; viability, T/C (compound 10 µM): 57.7% and 53.2%"
Cn1ncnc1C1c2n[nH]c(=O)c3cc(F)cc(c23)NC1c1ccc(F)cc1 (stereo not given),99.1% and 105%,101% and 100%,96.3% and 98.4%,96.8% and 95.6%,> 100 nM,–,–,–,–,–,–,"viability, T/C (compound 0.000316 µM): 107% and 97.8%; viability, T/C (compound 0.001 µM): 104% and 106%"
NC1CC1c1ccc(-c2cccc(O)c2)cc1 (stereo not given),–,–,–,–,–,95.9% [middle of 25 runs],97.8% [middle of 25 runs],–,–,–,–,"IC50 (compound alone, run of 02/21/2022): > 10000 nM"
NC1CCC(NC2CC2c2ccccc2)CC1 (stereo not given),–,–,–,–,–,93.8% and 93%,96.9% [middle of 25 runs],–,–,–,–,"viability, T/C (compound 3.16 µM): 97.9% [middle of 25 runs]; viability, T/C (compound 10 µM): 97.5% [middle of 23 runs]; IC50 (compound alone, run of 02/15/2022): > 10000 nM"
NS(=O)(=O)OCC1CC(n2ccc3c(NC4CCc5ccccc54)ncnc32)CC1O (stereo not given),–,–,–,–,> 3000 nM,–,–,109% and 80.7%,94.8% and 79.4%,75.2% and 67.4%,83.8% and 77.4%,"viability, T/C (compound 0.949 µM): 79.3% and 74.5%; viability, T/C (compound 3 µM): 67.7% and 66.8%"
Nc1ccccc1NC(=O)c1ccc(CNC(=O)OCc2cccnc2)cc1,–,–,–,–,63.2 nM and 65.4 nM,–,–,81.1% and 83.5%,65.5% and 73%,42.2% and 39%,13.3% and 8.4%,"viability, T/C (compound 0.949 µM): 0.4% and 0.47%; viability, T/C (compound 3 µM): 1.02% and 0.51%"
Nc1ccn(C2OC(CO)C(O)C2(F)F)c(=O)n1 (stereo not given),–,–,–,–,> 300 nM,–,–,97.9% and 81.6%,66.4% and 65.5%,68.4% and 66.2%,63.8%,"viability, T/C (compound 0.000949 µM): 98.3% and 103%; viability, T/C (compound 0.003 µM): 95.8% and 101%"
Nc1ncn(C2CC(O)C(CO)O2)c(=O)n1 (stereo not given),106% and 105%,92.3% and 102%,95.5% and 99.8%,101% and 103%,> 1000 nM,100% and 102%,93.5% and 97.9%,–,–,–,–,–
Nc1ncn(C2CC(O)C(CO)S2)c(=O)n1 (stereo not given),–,–,–,–,> 300 nM,–,–,103% and 106%,106% and 111%,111% and 116%,100% and 104%,"viability, T/C (compound 0.000949 µM): 96.8% and 102%; viability, T/C (compound 0.003 µM): 105% and 111%"
O=C(C=Cc1cccc(S(=O)(=O)Nc2ccccc2)c1)NO,–,–,–,–,155 nM and 119 nM,–,–,107% and 99.7%,103% and 104%,70.1% and 56.7%,22.9% and 15%,"viability, T/C (compound 0.949 µM): 0.4%; viability, T/C (compound 3 µM): 0.41% and 0.39%"
O=C(C=Cn1cnc(-c2cc(C(F)(F)F)cc(C(F)(F)F)c2)n1)NNc1cnccn1,28.4% and 33.1%,31% and 30.9%,19.2% and 19.6%,17.7% and 14.5%,< 3.16 nM,13.8% and 10.2%,7.27% and 6.31%,–,–,–,–,–
O=C(c1cc(Cc2n[nH]c(=O)c3ccccc23)ccc1F)N1CCN(C(=O)C2CC2)CC1,–,–,91.2% and 89.6%,93.7% and 93.2%,> 10000 nM,91.9% and 90%,94% and 84.9%,–,–,–,–,"viability, T/C (compound 3.16 µM): 89.9% and 91.9%; viability, T/C (compound 10 µM): 95.3% and 95.9%"
